Where “and” joins values, the source holds several entries; their conditions need not be identical. Equal entries are not always repeated. Where two headings read alike, the source gives them in different places.
Columns and labels:
[1] = test system: T. b. rhodesiense KETRI 2537; parameters: method as in PMID 19064893; conditions: oral, for 5 days; first stage HAT monkey model; cited from earlier work
[2] = parameters: method as in earlier work; conditions: cited from earlier work
[3] = parameters: method as in PMID 20721830; conditions: cited from earlier work
[4] = oral administration, cited from earlier work
[5] = Metabolism of DB868 in vervet monkey liver microsomes; type: in vitro ADME; conditions: incubation of 10 µM DB868; HPLC/UV; formation confirmed by fluorescence and mass spectrometric detection
Protocol: DB868 metabolism was studied in male vervet monkey liver microsomes (custom-prepared by XenoTech, LLC, Lenexa, KS, USA) by adapting a previously published method. Briefly, incubation mixtures contained 10 µM DB868, 0.5 mg/mL monkey liver microsomes, and 3.3 mM MgCl2 in 100 mM phosphate buffer (pH 7.4). Reactions were initiated by the addition of NADPH (1 mM final concentration). Control incubations were carried out without NADPH, DB868, or liver microsomes. Aliquots (100 µL) of the reaction mixtures were removed at 0, 5, 10, 15, 30, 60 and 120 min and mixed with 100 µL of ice-cold acetonitrile. After centrifugation to pellet precipitated proteins, the supernatants were analyzed by HPLC/UV and fluorescence using the method previously described for pafuramidine (DB289) and furamidine (DB75). Metabolite identification was performed by comparing retention times to those of synthetic standards for M1 (DB1679), M2 (DB840), M3 (DB1712), and DB829. DB868 and its metabolites were quantified using a calibration curve (0.1–10 µM) generated using synthetic standards.

[6] = Pharmacokinetics in infected vervet monkeys (first stage HAT); type: in vivo, vervet monkey; conditions: for AUClast: last measurable concentration varied (2–133 days)
[7] = test system: T. b. rhodesiense STIB900; parameters: method as in PMID 19620327; conditions: in vitro; cited from earlier work
[8] = test system: T. b. rhodesiense STIB900; parameters: method as in PMID 19620327; conditions: intraperitoneal administration; cited from earlier work
[9] = test system: T. b. brucei GVR35; parameters: method as in PMID 19620327; conditions: intraperitoneal administration; cited from earlier work
[10] = test system: T. b. brucei s427 trypanosomes; parameters: method as in PMID 21402852; conditions: 2.7 µM; cited from earlier work
[11] = Pharmacokinetics in uninfected vervet monkeys; conditions: for half-life: po, geometric mean terminal elimination half-life
[12] = oral DB868 10 mg/kg group, infected
[13] = oral DB868 20 mg/kg group, infected
[14] = oral DB868 20 mg/kg×5 days, infected, individual monkeys
[15] = after final oral dose of DB868 10 mg/kg×10 days, uninfected, individual monkeys
[16] = after final oral dose of DB868 30 mg/kg×10 days, uninfected, individual monkeys

CONC(=N)c1ccc(-c2ccc(-c3ccc(C(=N)NOC)cc3)o2)cc1 [pafuramidine, 2,5-bis(4-amidinophenyl)furan-bis-O-methylamidoxime]
dose required to achieve complete cure [1]: 10 mg/kg | increase in KIM-1 ([2]; oral 12 mg/kg/day×28 days, one week post-LDD): 13 fold | increase in ALT compared to untreated rats ([2]; rats, 12 mg/kg/day for 4 weeks): 18 fold | liver injury ([3]; extended phase I clinical trial in humans): transient liver injury | patients with unexpected severe kidney injury ([3]; five patients): ~6% | classical kidney injury biomarkers, BUN and serum creatinine ([4]; mouse diversity panel): remained unchanged | urinary kidney injury molecule-1 (KIM-1) ([4]; sensitive strains of 34 inbred mouse strains): marked elevations

N=C(N)c1ccc(-c2ccc(-c3ccc(C(=N)N)cn3)o2)nc1 [DB829, 2,5-bis(5-amidino-2-pyridyl)furan]
detection of active compound formed from DB868 [5]: at the limit of detection in UV mode | Cmax ([6]; after final oral dose of DB868 3 mg/kg×7 days, first stage HAT, individual monkeys 638, 643, read-out: Cmax): 230 nM | Cmax ([6]; after final oral dose of DB868 10 mg/kg×7 days, first stage HAT, individual monkeys 675, 691, read-out: Cmax): 200 nM | Tmax ([6]; after final oral dose of DB868 20 mg/kg×5 days, infected, individual monkeys): 4.08 h | Tmax ([6]; monkey, plasma, po, 3 mg/kg, oral DB868 3 mg/kg group, infected, read-out: median Tmax (converted)): 4 h | Cmax ([6]; monkey, plasma, po, 3 mg/kg/day, oral DB868 3 mg/kg/day×7 days, infected, read-out: median Cmax): 170 nM | Tmax ([6]; monkey, plasma, po, 10 mg/kg, oral DB868 10 mg/kg group, infected, read-out: median Tmax (converted)): 24 h | Cmax ([6]; monkey, plasma, po, 10 mg/kg/day, after final oral dose of DB868 10 mg/kg×7 days, first stage HAT, individual monkeys 675, 691, read-out: Cmax): 210 nM | Cmax ([6]; monkey, plasma, po, 10 mg/kg/day, oral DB868 10 mg/kg/day×7 days, infected, read-out: median Cmax): 205 nM | half-life ([6]; monkey, plasma, po, 10 mg/kg/day, oral DB868 10 mg/kg×7 days, infected, monkey 691, read-out: t1/2 (terminal elimination half-life) (converted)): 600 h | Tmax ([6]; monkey, plasma, po, 20 mg/kg, oral DB868 20 mg/kg group, infected, read-out: median Tmax (converted)): 4 h | Cmax ([6]; monkey, plasma, po, 20 mg/kg/day, after final oral dose of DB868 20 mg/kg×5 days, first stage HAT, individual monkeys 585, 658, read-out: Cmax): 370 nM | Tmax ([6]; monkey, plasma, po, 20 mg/kg/day, after final oral dose of DB868 20 mg/kg×5 days, infected, individual monkeys, read-out: Tmax (converted)): 4.08 h | Cmax ([6]; monkey, plasma, po, 20 mg/kg/day, oral DB868 20 mg/kg/day×5 days, infected, read-out: median Cmax): 435 nM | median Cmax relative to IC50 (14 nmol/L) against T. b. rhodesiense STIB900 ([6]; oral DB868 3 mg/kg/day for 7 days, infected): 12 fold | AUClast ([6]; oral DB868 3 mg/kg×7 days, infected, individual monkeys): 160 nmol·days/L and 950 nmol·days/L | mean AUClast relative to 3 mg/kg group [6, 12]: 7 fold | median Cmax relative to 3 mg/kg group [6, 12]: 1.2 fold | median Cmax relative to IC50 (14 nmol/L) against T. b. rhodesiense STIB900 ([6]; oral DB868 10 mg/kg/day for 7 days, infected): 15 fold | AUClast ([6]; oral DB868 10 mg/kg×7 days, infected, individual monkeys): 4000 nmol·days/L and 3500 nmol·days/L | AUC0-∞ ([6]; oral DB868 10 mg/kg×7 days, infected, monkey 691): 3900 nmol·days/L | mean AUClast relative to 3 mg/kg group [6, 13]: 10 fold | median Cmax relative to 3 mg/kg group [6, 13]: 2.6 fold | median Cmax relative to IC50 (14 nmol/L) against T. b. rhodesiense STIB900 ([6]; oral DB868 20 mg/kg/day for 5 days, infected): 31 fold | AUC0-∞ [6, 14]: 10000 nmol·days/L and 5300 nmol·days/L | t1/2 (terminal elimination half-life) [6, 14]: 85 days and 24 days | AUClast [6, 14]: 7300 nmol·days/L and 4100 nmol·days/L | median AUC0-∞ of 20 mg/kg group relative to monkey 691 (10 mg/kg group) ([6]; oral DB868, infected): twice | median terminal elimination half-life of 20 mg/kg group relative to monkey 691 (10 mg/kg group) ([6]; oral DB868, infected): twice | IC50 [7]: 14 nM | curative [8]: 100% | curative [9]: 100% | exposure required to kill trypanosomes in culture [10]: 24 h | AUC0-∞ [11, 15]: 3700 nmol/L•day (2×) and 4100 nmol/L•day and 2400 nmol/L•day | AUClast [11, 15]: 3000 nmol/L•day and 2800 nmol/L•day and 2100 nmol/L•day (2×) | t1/2 (terminal elimination half-life) [11, 15]: 30 day (2×) and 55 day and 18 day | AUC0-∞ [11, 16]: 5600 nmol·days/L and 7000 nmol·days/L and 6200 nmol·days/L and 12100 nmol·days/L | AUClast [11, 16]: 4700 nmol·days/L and 5700 nmol·days/L and 4600 nmol·days/L and 7100 nmol·days/L | concentration at 4 h ([11]; both, monkey, in vivo, 10 mg/kg, C4 h, plasma concentration at 4 h after final (10th) oral dose of DB868 10 mg/kg×10 days, uninfected, individual monkeys 643, 659, 675, 677): 240 nM | concentration at 4 h ([11]; both, monkey, in vivo, 10 mg/kg/day, geometric mean C4 h, oral DB868 10 mg/kg/day×10 days, uninfected, n = 4): 185 nM | concentration at 4 h ([11]; both, monkey, in vivo, 30 mg/kg, C4 h, plasma concentration at 4 h after final (10th) oral dose of DB868 30 mg/kg×10 days, uninfected, individual monkeys 546, 567, 668, 679): 440 nM | concentration at 24 h ([11]; both, monkey, in vivo, 30 mg/kg, C24 h, plasma, 24 h after final oral dose of DB868 30 mg/kg×10 days, uninfected, individual monkeys): 360 nM | concentration at 4 h ([11]; both, monkey, in vivo, 30 mg/kg/day, geometric mean C4 h, oral DB868 30 mg/kg/day×10 days, uninfected, n = 4): 320 nM | half-life ([11]; both, monkey, in vivo, 10 mg/kg/day, oral DB868 10 mg/kg/day×10 days, uninfected (second of 'respectively'; agrees with Table 1)): 744 h | half-life ([11]; both, monkey, in vivo, 30 mg/kg/day, oral DB868 30 mg/kg/day×10 days, uninfected (first of 'respectively'; agrees with Table 1)): 696 h | geometric mean C4 h relative to IC50 (14 nmol/L) against T. b. rhodesiense STIB900 ([11]; oral DB868 10 mg/kg/day×10 days, uninfected): 13 fold | geometric mean C4 h relative to IC50 (14 nmol/L) against T. b. rhodesiense STIB900 ([11]; oral DB868 30 mg/kg/day×10 days, uninfected): 23 fold | time plasma concentrations remained >100 nmol/L after last DB868 dose ([11]; oral DB868, in some monkeys (Figures 6 and 8, uninfected and infected)): up to 7 days post-LDD | geometric mean AUC0-∞, 30 mg/kg group relative to 10 mg/kg group ([11]; oral DB868×10 days, uninfected): 2.2 fold | geometric mean AUClast, 30 mg/kg group relative to 10 mg/kg group ([11]; oral DB868×10 days, uninfected): 2.2 fold | C4 h ([11]; plasma concentration at 4 h after final (10th) oral dose of DB868 10 mg/kg×10 days, uninfected, individual monkeys 643, 659, 675, 677): 160 nM and 180 nM and 170 nM | C4 h ([11]; plasma concentration at 4 h after final (10th) oral dose of DB868 30 mg/kg×10 days, uninfected, individual monkeys 546, 567, 668, 679): 290 nM and 300 nM and 270 nM | C24 h ([11]; plasma, 24 h after final oral dose of DB868 10 mg/kg×10 days, uninfected, individual monkeys, BLQ = below limit of quantitation): 140 nM and 260 nM and 120 nM and 170 nM | C24 h ([11]; plasma, 24 h after final oral dose of DB868 30 mg/kg×10 days, uninfected, individual monkeys): 210 nM and 280 nM and 340 nM

Source: paper PMC3674995, “Safety, Pharmacokinetic, and Efficacy Studies of Oral DB868 in a First Stage Vervet Monkey Model of Human African Trypanosomiasis” (PLoS Neglected Tropical Diseases, 2013)
